Results from publication PMC7932521, “2-aminobenzimidazoles for leishmaniasis: From initial hit discovery to in vivo profiling” (PLoS Neglected Tropical Diseases, 2021).
Where two headings read alike, the source gives them in different places.

Assays:
[1] = system: PMM (Primary Mouse Macrophages); experiment: Cytotoxicity on primary peritoneal mouse macrophages; format: cell-based; conditions: Mus musculus, Macrophage, read-out: PMM IC50
Procedure: (§1) Leishmania infantum MHOM/MA(BE)/67/ITMAP263 amastigotes were collected from the spleen of infected donor Golden hamsters. Primary peritoneal mouse macrophages (PMM) were used as host cells for in vitro assays. PMM were collected from Swiss mice after 2 days of peritoneal stimulation with a 2% suspension of potato starch and maintained in RPMI-1640 medium supplemented with 200 mM L-glutamine, antibiotics and 5% FCS at 37°C and 5% CO2. Promastigotes of L. infantum chagasi (luciferase) (MHOM/BR/2005/NLC) obtained as described in Reimão et al.,[27] were grown in M199 medium supplemented with 10% FCS, 0.25% hemin, 32 μg/ml hygromycin and 2% sterile human urine at 25°C and 5% CO2.
(§2) Stock solutions of the compounds at 20 mM were prepared in 100% DMSO. Next, the compounds were serially pre-diluted in DMSO followed by a further dilution in demineralized water to assure a final in-test DMSO concentration below 1%. The compounds were tested at 4-fold dilutions starting at 64 μM.

[2] = system: Leishmania infantum MHOM/MA(BE)/67/ITMAP263 amastigotes; experiment: L. infantum intracellular amastigote assay in PMM; format: cell-based; conditions: for SI: selectivity index (CC50 / IC50): CC50 / L. infantum IC50; for IC50: Leishmania infantum, read-out: L. infantum IC50
Procedure: as §1, §2
For the antileishmania in vitro assays, 3×10^4 PMM/well were seeded in 96-well plates. After 24h, 5×10^5 amastigotes/well were added and incubated for 2h at 37°C. Next, the compounds in 4-fold serial dilutions were added and the plates were further incubated for 5 days (37°C, 5% CO2). Parasite burdens were assessed using an inverted microscope after Giemsa staining. The results were expressed as percent reduction in parasite burdens compared to negative control wells (100% growth) and IC50 values were determined. Values represent the geometric mean of at least two independent experiments. Miltefosine was used as the positive control in all plates.

[3] = Experimental distribution coefficient (eLogD); format: physicochemical; conditions: pH 7.4
Procedure: To determine the lipophilicity of the compounds, a methodology based on the retention time of molecules in reverse stationary phase (Ascentis RP-Amide HPLC column) was used. The chromatogram was obtained using LC-MS/MS. Test compounds were prepared at 1.0 μg/mL by adding the stock solution at (1:1) mobile phases A:B + internal standard at 200nM (A: 5% methanol in 10mM ammonium acetate pH 7.4, B: 100% methanol), DMSO concentration must be lower than 2%. […] The retention time (in minutes) of each of the eight standards was plotted against their LogD values. The resulting equation for the calibration curve (y = mx + b) was used to calculate the LogD values for the test compounds.

MRC-5 cytotoxicity = format: cell-based; conditions: human, MRC-5 cells; S1 Data
[4] = Parallel artificial membrane permeability assay (PAMPA); format: in vitro ADME; conditions: PAMPA, S1 Data; read-out: PAMPA Pe
Procedure: To determine the passive permeability of the compounds, a 96-well plate containing membranes pre-coated with lipids (Corning Gentest # 353015) was used. The solutions of the compounds were prepared by diluting the stock solutions (10mM) in phosphate buffered saline (PBS) pH 6.5 at a final concentration of 10μM. The solutions diluted in PBS pH 6.5 were then added to the donor portion of the plate (300 μl/well), while PBS pH 7.4 (200 μl/well) was added to the acceptor portion. The two portions of the plate were then coupled, and the system was incubated for 5 h at 37°C. At the end of the incubation, samples were collected from the donor and acceptor plates, and then added to plates containing quench solution (10% water and 90% methanol: acetonitrile (50:50) + 50 nM tolbutamide). The final concentrations of compounds in the donor, acceptor, and initial solution (T0) wells were analyzed using LC-MS/MS. The results were used to calculate an effective permeability (Pe) value. The PAMPA assay was performed in triplicate (n = 3).

[5] = Mouse liver microsomal stability; format: in vitro ADME
Procedure: The metabolic stability of the compounds was evaluated in human (pool of 200 donors, XenoTech) and mouse liver microsomes (CD1 mouse, GIBCO). Test compounds were prepared at a concentration of 0.5 μM and incubated with 0.25 mg/mL liver microsomes at pH 7.4 and 37°C. The reaction was started by addition of NADPH at […]. Samples were taken at 0, 5, 10, 15, 20 and 30 minutes. The reaction was stopped by the addition of acetonitrile:methanol (1:1) containing an internal standard (tolbutamide at 50 nM). Compounds were quantified by liquid chromatography triple quadrupole mass spectrometry (LC-MS/MS). Peak area ratios (analyte/internal standard) were converted to % remaining using the area ratio at time 0 as 100%. Half-life (t1/2 = ln(2)/k) in minutes and intrinsic clearance (Clint = k x 1000/(0.25)) in μL/min/mg were calculated using a non-linear regression from % remaining versus incubation time. From this plot, the slope (k) was determined. The analysis conditions were: analytical column (Gemini C18, […], Phenomenex), electrospray ionization source (ESI) in positive and negative mode, mobile phase A (water + 0.1% formic acid) and B (acetonitrile + 0.1% formic acid), flow rate of 0.7 mL/min.

[6] = 120 h, intracellular amastigotes in PMM, 5 days
[7] = reverse stationary phase HPLC column (Ascentis RP-Amide), S1 Data

SMILES | IC50 [1] | SI: selectivity index (CC50 / IC50) [2] | IC50 [2, 6] | IC50 ([2]; S1 Data) | eLogD ([3]; experimental) | chromatographic logD [3, 7] | CC50 (MRC-5 cytotoxicity) | Papp at 5 h, 10 μM [4] | MLM CLint ([5]; S1 Data) | chromatographic logD ([3]; reverse-phase HPLC retention (Ascentis RP-Amide column), experimental) | microsomal CLint at 0.5 μM ([5]; CD1, mouse, liver microsomes, pH 7.4, S1 Data, read-out: MLM CLint) | MLM CLint ([5]; mouse liver microsome intrinsic clearance)
Cn1nncc1C(=O)Nc1nc2ccc(C#N)cc2n1CC(F)(F)F [Compound 33, O=C(c1cnnn1C)Nc2nc(ccc(C#N)c3)c3n2CC(F)(F)F] | 32 µM | 2 | 15 µM | 14.8 µM | 4.0 | 4 | > 64 µM |  |  |  |  | 
N#Cc1ccc2nc(NC(=O)c3ccnn3C3CC3)n(CC(F)(F)F)c2c1 [Compound 37, O=C(c1ccnn1C2CC2)Nc3nc(ccc(C#N)c4)c4n3CC(F)(F)F] | 45.2 µM | 5 | 10 µM | 10.1 µM |  |  | 3 µM |  |  |  |  | 
O=C(Cc1ccc(Cl)cc1)Nc1nc2ccc(F)cc2n1CC(F)(F)F [Compound 23, Fc1cc2c(nc(NC(=O)Cc3ccc(Cl)cc3)n2CC(F)(F)F)cc1] | 45.2 µM |  | 4.8 µM | 4.82 µM |  | 4.46 | > 64 µM | 7.07 ×10⁻⁶ cm/s |  |  |  | 
CCCn1c(NC(=O)Cc2ccc(Cl)cc2)nc2cc(F)ccc21 [Compound 4, CCCn1c(ccc(F)c2)c2nc1NC(=O)Cc3ccc(Cl)cc3] | 20.2 µM | 5 | 4.3 µM | 4.35 µM |  | 4.26 | > 64 µM |  | 1510 µL/min/mg |  |  | 
CC(C)(C)Cn1c(NC(=O)Cc2ccc(C(F)(F)F)cc2)nc2ccccc21 [Compound 20, CC(Cn1c(cccc2)c2nc1NC(Cc3ccc(C(F)(F)F)cc3)=O)(C)C] | 22.6 µM |  | 8.2 µM | 8.18 µM |  |  | > 32 µM |  |  | 4.9 |  | 
Cn1nccc1C(=O)Nc1nc2cccnc2n1CC(F)(F)F [Compound 53, O=C(c1ccnn1C)Nc2nc(cccn3)c3n2CC(F)(F)F] | 32 µM | 4 | 8.2 µM | 8.18 µM |  |  | 6.83 µM | 24.3 ×10⁻⁶ cm/s |  |  | 118 µL/min/mg | 119 µL/min/mg
Cn1cc(C(=O)Nc2nc3ccc(C#N)cc3n2CC(F)(F)F)cn1 [Compound 36, O=C(c1cn(C)nc1)Nc2nc(ccc(C#N)c3)c3n2CC(F)(F)F] | 16 µM | 2 | 8.7 µM | 8.74 µM |  |  | 56.1 µM |  |  |  |  | 
CN1CCC(n2c(NC(=O)c3ccnn3C)nc3ccc(C#N)cc32)CC1 [Compound 51, O=C(c1ccnn1C)Nc2nc(ccc(C#N)c3)c3n2C4CCN(C)CC4] | 50.8 µM | 3 | 20 µM | 20.2 µM |  |  | > 64 µM | 2.91 ×10⁻⁶ cm/s | 72 µL/min/mg |  |  | 
CCCn1c(NC(=O)Cc2ccc(Cl)cc2)nc2ccc(F)cc21 [Compound 3, CCCn1c(cc(F)cc2)c2nc1NC(=O)Cc3ccc(Cl)cc3] | 12.7 µM | 4 | 2.9 µM | 2.94 µM |  | 4.31 | 56.7 µM |  | 1590 µL/min/mg |  |  | 
